The subject of the experiment is E. coli Rosetta DE3 pLysS. Description: MIC, liquid broth microdilution assay. To be noted: 25% MHBII, 7.5 × 10^6 CFU/mL, 20 ± 2 h at 37 °C, turbidity at 600 nm, at least twice in triplicates. The class given is cell-based, Escherichia coli. As to the method: Minimal inhibitory concentrations (MICs) were determined at least twice in triplicates, using a liquid broth microdilution assay in sterile 96-well plates and a total volume of 100 μL per well. Aqueous peptide solutions were serially two-fold diluted in 50 µL of 25% MHBII or LB medium (Luria/Miller). Overnight cultures were diluted in 25% MHBII or LB medium (Luria/Miller) to 1.5 × 10^7 cells per mL and an aliquot of 50 μL was added to each well. The final cell count in each well was 7.5 × 10^6 CFU/mL. The plates were incubated for 20 ± 2 h at 37 °C. The turbidity of each well was measured at 600 nm.
A general note: Dilution methods test growth across graded concentrations, often in twofold steps.

No end group written: not given here.

As a reminder, the MIC is the smallest concentration in the dilution series that meets the test's criterion for growth inhibition. With GNNRPIYIPRPRPPHPRPIRV [Api805], the MIC is 4 µg/mL.

As to GNNRPVYIPRPRPPHPRL [Api801], the MIC is 2 µg/mL.

Source of the values: PMC9221748, “Construction and Characterization of T7 Bacteriophages Harboring Apidaecin-Derived Sequences” (Current Issues in Molecular Biology, 2022).
